Experiment [1] addresses Neuraminidase (Influenza A virus (A/Memphis/1/1971(H3N2)), UniProt P03471, E119V). Set-up: species or system Influenza A virus (A/Fukui/45/2004(H3N2)).
For experiment [2] the target is unchanged. Set-up: species or system Influenza A virus (A/Fukui/45/2004(H3N2)). This is another data set of the same source.

One may read the IC50 as the midpoint of a concentration-inhibition curve. A lower IC50 goes with greater potency. With `CC(=O)N[C@@H]1[C@@H](O)[C@@H](F)[C@](F)(C(=O)O)O[C@H]1[C@H](O)CCO`, the IC50 in experiment [1] was 25.1 µM; in experiment [2], 4.4 µM.
In the same order, the values of `CC(=O)N[C@@H]1C[C@@H](F)[C@](F)(C(=O)O)O[C@H]1[C@H](O)[C@H](O)CO` are 3.71 µM and 3.67 µM.

Values taken from ChEMBL document CHEMBL4118102 (J Med Chem, 2018).
